Reference: patent US20220033405A1, “PHARMACEUTICAL COMPOSITION FOR PREVENTING OR TREATING CANCER CONTAINING PLK1 INHIBITOR AS ACTIVE INGREDIENT” (NATIONAL CANCER CENTER, priority 2018, published 2022)

Key:
Type in all cases: cell-based
MDA-MB-468 cells = test: Cancer cell growth inhibition (DAPI nuclei count), breast cancer line; settings: treated 1 and 3 days after attachment
Experimental: For this purpose, experiments were performed using liver cancer, breast cancer, hematologic cancer, cervical cancer, and prostate cancer cell lines, a murine liver cancer cell line HEPA 1-6 and a breast cancer cell line MDA-MB-468 were cultured in a DMEM medium supplemented with 10% fetal bovine serum (FBS) and 1% penicillin/streptomycin, the other cell lines were cultured in a RPMI1640 medium supplemented with the same additives, and the cell lines were used in the experiment.
To examine the ability of the compound to inhibit the growth of the breast cancer cell line, the compounds was treated at each indicated μM concentration 1 and 3 days after cell attachment, and the control was treated with a 0.1% solvent (DMSO). […] After the cells were additionally rinsed once with PBS, cells stained with DAPI were photographed by Cytation 3, and the resulting images were analyzed with Gen5 software (Biotek, USA). Meanwhile, cells that grew in a floating manner without being attached to the culture plate were treated with a 4% paraformaldehyde solution, reacted at room temperature for 10 minutes to fix the cells, and then photographed in a bright field by Cytation3, and the resulting images were analyzed by Gen5 software (Biotek, USA). […]

[1] = test system: SNU449 human liver cancer cells; test: Reactivity of M2 variants in SNU449
Experimental: (§1) To examine the ability of the compound to inhibit the growth of the breast cancer cell line, the compounds was treated at each indicated μM concentration 1 and 3 days after cell attachment, and the control was treated with a 0.1% solvent (DMSO). After another two days, the cell lines that were attached to the culture plate and grew were rinsed with 1×PBS and treated with 4% paraformaldehyde at room temperature for 10 minutes to fix the cells. Then, after cells were rinsed twice with PBS, the fixed cells were treated with a 0.5% Triton X-100 solution and reacted at room temperature for 15 minutes, rinsed another three times with PBS, and then treated with a DAPI reagent at 0.5 μg/ml, and reacted at 37° C. for 10 minutes to stain the cell nuclei. After the cells were additionally rinsed once with PBS, cells stained with DAPI were photographed by Cytation 3, and the resulting images were analyzed with Gen5 software (Biotek, USA). Meanwhile, cells that grew in a floating manner without being attached to the culture plate were treated with a 4% paraformaldehyde solution, reacted at room temperature for 10 minutes to fix the cells, and then photographed in a bright field by Cytation3, and the resulting images were analyzed by Gen5 software (Biotek, USA).
(§2) To analyze the ability to inhibit the growth of liver cancer cell lines, 6.6×10^3 HepG2 cells per well, 1×10^3 cells of each of Hep3B, SNU-475, and SNU-449 per well, and 2×10^3 SNU-387 cells per well were aliquoted in a 96-well plate, cultured in the same manner as described above, treated with Compound 2 (M2), Compound 3 (M4), Compound 4 (M21), Compound 5 (M23), and Compound 6 (M25), and then the ability to inhibit the growth of cells was analyzed.

[2] = test system: JIMT1 human breast cancer cells; test: Cancer cell growth inhibition, M2 variants in JIMT1
Experimental: as §1

[3] = test system: HepG2 human liver cancer cells; test: Reactivity of M2 variants in HepG2
Experimental: as §1, §2

O=c1nc2[nH]c3cc(Cl)ccc3nc-2c(=O)[nH]1 [Compound 3, 8-chloro-1H,2H,3H,4H-benzo[g]pteridine-2,4-dione]
number of cells (MDA-MB-468 cells): the number of cells was remarkably reduced in proportion to the treatment concentration

Cc1cccc(OCCn2c3nc(=O)[nH]c(=O)c-3nc3cc(C(F)(F)F)ccc32)c1 [Compound 11, 10-[2-(3-methylphenoxy)ethyl]-7-(trifluoromethyl)-2H,3H,4H,10H-benzo[g]pteridine-2,4-dione]
number of cancer cells [1]: a relatively remarkable cancer cell reduction effect did not appear

Cc1cc2nc3c(=O)[nH]c(=O)nc-3n(C)c2cc1C=O [Compound 8, 7,10-dimethyl-2,4-dioxo-2H,3H,4H,10H-benzo[g]pteridine-8-carbaldehyde]
number of cancer cells [2]: remarkably reduced the number of cancer cells in a dose-dependent manner
number of cancer cells [1]: the number of cancer cells was remarkably reduced in a dose-dependent manner

Cc1cc2nc3c(=O)[nH]c(=O)nc-3n(C[C@H](O)[C@H](O)[C@H](O)CO)c2cc1C [Compound 12, 7,8-Dimethyl-10-[(2S,3S,4R)-2,3,4,5-tetrahydroxypentyl]benzo[g]pteridine-2,4-dione]
areas of liver cancer cells [3]: relatively low reactivity appeared
number of cancer cells [1]: a relatively remarkable cancer cell reduction effect did not appear

Cc1cc2nc3c(=O)[nH]c(=O)nc-3n(C)c2cc1C [Compound 7, 7,8,10-trimethyl-2H,3H,4H,10H-benzo[g]pteridine-2,4-dione]
number of cancer cells [2]: remarkably reduced the number of cancer cells in a dose-dependent manner
areas of liver cancer cells [3]: remarkably reduced in a dose-dependent manner
number of cancer cells [1]: the number of cancer cells was remarkably reduced in a dose-dependent manner

Cc1cc2nc3c(=O)[nH]c(=O)nc-3n(CCC#N)c2cc1C [Compound 10, 3-{7,8-dimethyl-2,4-dioxo-2H,3H,4H,10H-benzo[g]pteridin-10-yl}propanenitrile]
number of cancer cells [1]: a relatively remarkable cancer cell reduction effect did not appear
